From US10729815B2, “Combined treatment for nerve injuries” (Ramot at Tel-Aviv University Ltd., priority 2016, dated 2020) come the findings set out here.

The subject of assay [1] is astrocytes cultures of human brain cells, derived from astrocytoma, U-87 MG. The experiment in a line: In-vitro effect of anti-gliotic agents on 35S-GAG accumulation in activated astrocytes. In kind it is cell-based. Particulars: 48 h. Here is the method: (§1) Cell culture—Astrocytes cultures of human brain cells, derived from astrocytoma, U-87 MG (ATCC® HTB-14™, American Type Culture Collection, Rockville, Md., USA) were cultured in growth medium [10% Fetal Bovine Serum (FBS) and 1% Penicillin-Streptomycin solution (PS) in Minimum Essential Medium (MEM)]. […] The cell suspension (5×10^5 cells/well) was seeded into a 6-well plate (500 μl/well) containing 1.5 ml/well of assay medium, incubated for 24±1 hours at […], 5% CO2, and then examined microscopically. Following, at 90% cell confluence, the plates were treated according to the following groups:
(§2) The anti-gliotic agents were added as follows: Chondroitinase ABC (0.2 U/ml), Collagenase (2 mg, 50 μl), β-D-Xyloside (2.5 mM, 20 μl), MMPs-3 (0.5 μg, 20 μl), Anti TGFβ 1,2&3 (10 μg, 20 μl), Mitomycin C (50 μg, 25 μl), ACE human recombinant (0.5 μg, 25 μl) and Anti-Nogo A (5 U, 25 μl).
Astrocytes activation causes glycosaminoglycans (GAGs) accumulation in cultures, both intracellularly, pericellularly and extracellularly. Therefore, GAGs can serve as a tracer for either formation or elimination of the scar barrier.

Assay [2] has the same test system. The experiment in a line: In-vitro effect of anti-gliotic agents on astrocytes survival (cell counting). In kind it is cell-based. The following applies: 48 h. The procedure:
as §1, §2

Setting [3] is: activated with Bt2-cAMP + theophylline plus anti-gliotic agent.
Where [4] appears, read: activated with Bt2-cAMP + theophylline plus anti-gliotic agent, values multiplied 6 times (normalized to vital cell survivors).
[5] abbreviates: astrocytes activated with Bt2-cAMP 1 mM + theophylline 0.25 mM plus the anti-gliotic agent.

As to `CCCC(=O)Nc1ncnc2c1ncn2[C@@H]1O[C@@H]2COP(=O)([O-])O[C@H]2[C@H]1OC(=O)CCC.[Na+]` [Bt2-cAMP, N6,2′-O-Dibutyryladenosine 3′,5′-cyclic monophosphate, sodium salt, reference compound], the “Isolated 35S-GAGs Average + SD” value in assay [1] (activator(s) only, theophylline well multiplied 6 times (normalized to vital cell survivors)) is on record as 34,872 + 2,946. Also, in assay [2] (activator(s) only, no anti-gliotic agent, Bt2-cAMP 1 mM, theophylline 0.25 mM), the “% of cells (cell percentage in astrocyte cultures relative to untreated cultures)” value was 32.8%.
For the molecule `O=[N+]([O-])c1ccc(O[C@@H]2OC[C@@H](O)[C@H](O)[C@H]2O)cc1` [β-D-Xyloside, 4-Nitrophenyl β-D-xylopyranoside, reference compound], the “% of Isolated 35S-GAGs (relative to the theophylline control)” value in assay [1] (setting [3]) was 78.5%. Also, in assay [1] (setting [4]), the “Isolated 35S-GAGs Average + SD” value is reported as 61,016 + 21,506. For the same molecule, the “% of cells (cell percentage in astrocyte cultures relative to untreated cultures)” value in assay [2] (setting [5]) is on record as 54.7%.
On to Chondroitinase ABC, for which the “% of Isolated 35S-GAGs (relative to the theophylline control)” value in assay [1] (setting [3]) is reported as 5.5%. Further, the “Isolated 35S-GAGs Average + SD” value in assay [1] (setting [4]) was 4,299 + 939. In addition, in assay [2] (setting [5]), the “% of cells (cell percentage in astrocyte cultures relative to untreated cultures)” value is given as 33.1%.
For Collagenase the same measures were 66.1%, 51,371 + 10,556 and 39.1%.
In the case of “MMPs-3: MMP-3-Matrix Metalloproteinase, human Stromlysin STR1 (Sigma SRP 7783)”, in assay [1] (setting [3]), the “% of Isolated 35S-GAGs (relative to the theophylline control)” value stood at 82.3%. In addition, the “Isolated 35S-GAGs Average + SD” value in assay [1] (setting [4]) is 63,941 + 11,374. Also, the “% of cells (cell percentage in astrocyte cultures relative to untreated cultures)” value in assay [2] (setting [5]) stood at 23.2%.

B1: ACE human recombinant: Angiotensin Converting Enzyme Human recombinant (Biotest 929-ZN) (protein, UniProt P12821 30-1306, looked up)
Angiotensin-converting enzyme: LDPGLQPGNFSADEAGAQLFAQSYNSSAEQVLFQSVAASWAHDTNITAENARRQEEAALLSQEFAEAWGQKAKELYEPIWQNFTDPQLRRIIGAVRTLGSANLPLAKRQQYNALLSNMSRIYSTAKVCLPNKTATCWSLDPDLTNILASSRSYAMLLFAWEGWHNAAGIPLKPLYEDFTALSNEAYKQDGFTDTGAYWRSWYNSPTFEDDLEHLYQQLEPLYLNLHAFVRRALHRRYGDRYINLRGPIPAHLLGDMWAQSWENIYDMVVPFPDKPNLDVTSTMLQQGWNATHMFRVAEEFFTSLELSPMPPEFWEGSMLEKPADGREVVCHASAWDFYNRKDFRIKQCTRVTMDQLSTVHHEMGHIQYYLQYKDLPVSLRRGANPGFHEAIGDVLALSVSTPEHLHKIGLLDRVTNDTESDINYLLKMALEKIAFLPFGYLVDQWRWGVFSGRTPPSRYNFDWWYLRTKYQGICPPVTRNETHFDAGAKFHVPNVTPYIRYFVSFVLQFQFHEALCKEAGYEGPLHQCDIYRSTKAGAKLRKVLQAGSSRPWQEVLKDMVGLDALDAQPLLKYFQPVTQWLQEQNQQNGEVLGWPEYQWHPPLPDNYPEGIDLVTDEAEASKFVEEYDRTSQVVWNEYAEANWNYNTNITTETSKILLQKNMQIANHTLKYGTQARKFDVNQLQNTTIKRIIKKVQDLERAALPAQELEEYNKILLDMETTYSVATVCHPNGSCLQLEPDLTNVMATSRKYEDLLWAWEGWRDKAGRAILQFYPKYVELINQAARLNGYVDAGDSWRSMYETPSLEQDLERLFQELQPLYLNLHAYVRRALHRHYGAQHINLEGPIPAHLLGNMWAQTWSNIYDLVVPFPSAPSMDTTEAMLKQGWTPRRMFKEADDFFTSLGLLPVPPEFWNKSMLEKPTDGREVVCHASAWDFYNGKDFRIKQCTTVNLEDLVVAHHEMGHIQYFMQYKDLPVALREGANPGFHEAIGDVLALSVSTPKHLHSLNLLSSEGGSDEHDINFLMKMALDKIAFIPFSYLVDQWRWRVFDGSITKENYNQEWWSLRLKYQGLCPPVPRTQGDFDPGAKFHIPSSVPYIRYFVSFIIQFQFHEALCQAAGHTGPLHKCDIYQSKEAGQRLATAMKLGFSRPWPEAMQLITGQPNMSASAMLSYFKPLLDWLRTENELHGEKLGWPQYNWTPNSARSEGPLPDSGRVSFLGLDLDAQQARVGQWLLLFLGIALLVATLGLSQRLFSIRHRSLHRHSHGPQFGSEVELRHS
B1: the “% of Isolated 35S-GAGs (relative to the theophylline control)” value in assay [1] (setting [3]) amounted to 22.9%. Also, the “Isolated 35S-GAGs Average + SD” value in assay [1] (setting [4]) is 17,814 + 2,201. Moreover, the “% of cells (cell percentage in astrocyte cultures relative to untreated cultures)” value in assay [2] (setting [5]) stood at 70.4%.
